Consider three compounds from patent US20240228556A9, “NOVEL CANINE ODORANT BINDING PROTEINS” (SPECIALITES PET FOOD, priority 2021, published 2024).

One experiment deals with T1, CfamOBP3 (Canis lupus familiaris, UniProt H2B3G5).
T1 construct: His tag (from pQE31 vector) (N); made in house; host or cells: E. coli M15 (plasmid pQE31)
T1 sequence (H2B3G5 16-190): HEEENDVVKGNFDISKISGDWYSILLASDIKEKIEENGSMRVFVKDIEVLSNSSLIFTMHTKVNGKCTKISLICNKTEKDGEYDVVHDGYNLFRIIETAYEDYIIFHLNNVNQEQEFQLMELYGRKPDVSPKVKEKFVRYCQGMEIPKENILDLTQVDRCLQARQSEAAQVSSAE
The experiment in a line: Fluorescence competitive binding assay (NPN displacement). The conditions noted are these: 2 μM OBP, 10 μM NPN, 20° C., pH 7.5, odorant 0.5-20 μM. As to the method: (§1) Binding experiments were performed at 20° C. on a spectrofluorometer (Cary-Eclipse (Agilent, USA)) equipped with magnetic stirrers and a Peltier control temperature unit. The fluorescent probes: 1-N-phenylnaphthylamine (NPN) (Sigma, USA), 8-anilinonaphthalene-1-sulfonic acid (1,8-ANS) (Sigma, USA), and SYPRO™ orange (ThermoFischer, France) were excited at 337 nm, 372 nm and 490 nm respectively. Emission spectra were recorded between 350 and 500 nm for NPN; 400 and 600 nm for 1,8-ANS and 510 and 700 nm for SYPRO orange. Fluorescent probe binding experiments were performed in a 2 mL cuvette of 1 cm path length containing 2 μM OBPs in 50 mM potassium phosphate buffer at pH 7.5. The fluorescent probes were prepared in 100% MeOH at 0.1, 1, 10 and 100 mM. The concentration of the different fluorescent probes was increased into the 1 mL solution containing CfamOBPs until the adding allow to reach a fluorescence maximum of emission intensity. The binding curves were then traced using SigmaPlot 12.5 software.
(§2) Ligand competitive binding experiments were performed in cuvettes containing 2 μM OBPs, 10 μM fluorescent probe for CfamOBP1 and its variant (Seq ID No 14) and CfamOBP3, 4 μM fluorescent probe for CfamOBP2 and its variant (Seq ID No 15) and 1.25× fluorescent probe for CfamOBP4, in 50 mM potassium phosphate buffer at pH 7.5.
(§3) Odorants were prepared in 100% MeOH and aliquots were added to final concentrations of 0.5-20 μM. The experiments were performed in triplicate. The obtained data were then traced and analysed using SigmaPlot 12.5 software.

The target in experiment [1] is T2, CfamOBP3-102Y (mutant of Seq ID No 35) (Canis lupus familiaris, UniProt H2B3G5, H102Y).
T2 construct: His tag (MRGSHHHHHH leader of pQE31, then TDP from the BamHI site) (N); made in house; host or cells: E. coli M15 (plasmid pQE31)
T2 sequence (H2B3G5 16-190 H102Y): T1 sequence (H2B3G5 16-190) with H87Y
The experiment can be described thus: Isothermal titration calorimetry. It counts as binding. The settings on record: ITC at 25° C., 25 μM protein, 250 μM odorant, pH 7.5; mutant compared with CfamOBP3. As to the method: Titration experiments were carried at 25° C. using isothermal titration microcalorimeter VP-ITC system (Malvern Instruments, Malvern, UK). 100 mM odorant solution in MeOH were diluted to 250 μM into 100 mM potassium phosphate buffer, pH 7.5 and loaded into the syringe. Protein solutions were prepared at 25 μM in the phosphate buffer and degassed directly prior to experiment and injected into the measure cell. Injections of 10 μL ligand solution into the protein containing cell were performed at time intervals of 210 s with a total of 25 injections. Analysis of the experimental data was performed using the Origin 5.0 program (Malvern Instruments, Malvern, UK) and fitted by a model of one binding site. Binding parameters such as stoichiometry (n) and the association constant (KA) were determined by this fitting.

The target in experiment [2] is T3, CfamOBP1-L52 (variant of Seq ID No 14) (Canis lupus familiaris, UniProt O18873, S52L).
T3 construct: His tag (from pQE31 vector) (N); made in house; host or cells: E. coli M15 (plasmid pQE31)
T3 sequence (O18873 19-174 S52L): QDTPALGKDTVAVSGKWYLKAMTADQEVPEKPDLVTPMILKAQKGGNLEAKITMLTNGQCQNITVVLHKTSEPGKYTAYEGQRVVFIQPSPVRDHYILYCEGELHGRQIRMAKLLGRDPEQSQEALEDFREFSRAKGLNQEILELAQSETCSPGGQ
The experiment in a line: Fluorescence competitive binding assay (1,8-ANS displacement). The settings on record: 2 μM OBP, 10 μM 1,8-ANS, 20° C., pH 7.5, odorant 0.5-20 μM. As to the method: as §1, with “software. […]” for “software.”
(§4) Odorants were prepared in 100% MeOH and aliquots were added to final concentrations of 0.5-20 μM. […] The obtained data were then traced and analysed using SigmaPlot 12.5 software.

In the next experiment the target is T4, CfamOBP1 (Canis lupus familiaris, UniProt O18873).
T4 construct: His tag (from pQE31 vector) (N); made in house; host or cells: E. coli M15 (plasmid pQE31)
T4 sequence (O18873 19-174): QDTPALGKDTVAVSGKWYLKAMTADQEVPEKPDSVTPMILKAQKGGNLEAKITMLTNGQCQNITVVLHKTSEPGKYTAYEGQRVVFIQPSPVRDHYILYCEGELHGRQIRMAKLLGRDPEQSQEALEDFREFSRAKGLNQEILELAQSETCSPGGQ
The experiment is described as above. The settings on record: 2 μM OBP, 10 μM 1,8-ANS, 20° C., pH 7.5, odorant 0.5-20 μM. As to the method: as §1, with “software. […]” for “software.”
as §4

A further experiment addresses T5, CfamOBP2 (Canis lupus familiaris, UniProt O18874).
T5 construct: His tag (from pQE31 vector) (N); made in house; host or cells: E. coli M15 (plasmid pQE31)
T5 sequence (O18874 19-180): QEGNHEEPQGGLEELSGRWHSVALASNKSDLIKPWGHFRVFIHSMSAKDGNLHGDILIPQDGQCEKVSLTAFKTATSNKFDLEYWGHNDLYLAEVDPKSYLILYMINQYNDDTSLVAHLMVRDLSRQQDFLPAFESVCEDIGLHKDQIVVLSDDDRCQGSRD
The experiment in a line: Fluorescence competitive binding assay (NPN displacement). The conditions noted are these: 2 μM OBP, 4 μM NPN, 20° C., pH 7.5, odorant 0.5-20 μM. As to the method: as §1, §2, §3

Experiment [3] concerns the target T6, CfamOBP2-K83 (variant of Seq ID No 15) (Canis lupus familiaris, UniProt O18874, E83K).
T6 construct: His tag (from pQE31 vector) (N); made in house; host or cells: E. coli M15 (plasmid pQE31)
T6 sequence (O18874 19-180 E83K): T5 sequence (O18874 19-180) with E65K
The description is as above. The settings on record: 2 μM OBP, 4 μM NPN, 20° C., pH 7.5, odorant 0.5-20 μM. As to the method:
as §1, §2, §3

Positions count from the first letter of the chain named.

As for `COc1nccnc1CC(C)C` [IBMP, 2-isobutyl-3-methoxypyrazine], the “displacement of the fluorescent probe” value on CfamOBP3 was “able to displace the probes”. Moreover, in experiment [1], the “change of Ka value (affinity) versus CfamOBP3” value is on record as “eight fold increase”.

Consider `CC(C)=CCCC(C)CC=O` (stereo not drawn) [citronellal], for which the “displacement of the fluorescent probe” value (in experiment [2]; at CfamOBP1) was “able to displace the probes” in each case.

For the compound `CC(C)CCCC(C)CCO` (stereo not drawn) [DMO, 3,7-dimethyl-1-octanol], the “displacement of the fluorescent probe” value (at CfamOBP2; in experiment [3]) was “able to displace the probes” throughout.
